Assay results as given in paper PMC8011931, “Identification, Structure–Activity Relationship, and Biological Characterization of 2,3,4,5-Tetrahydro-1H-pyrido[4,3-b]indoles as a Novel Class of CFTR Potentiators” (Journal of Medicinal Chemistry, 2020).

Key:
[1] = Liver microsomal stability, phase I (NADPH), rat; type: in vitro ADME; conditions: for half-life at 1 h, 4.6 µM / half-life at 4.6 μM: rat, liver microsomes, pH 7.5, 0.1% DMSO, n ≥ 3, read-out: rat LM_NADPH t1/2; for rat LM_NADPH parent compound remaining at the last time point (in parentheses): 4.6 μM, 60 min
Procedure: Phase I: 10 mM DMSO stock solution of the test compound was preincubated at 37 °C for 15 min with rat, dog, or human liver microsomes in 0.1 M Tris–HCl buffer (pH 7.5) with 10% DMSO. The final concentration was 4.6 μM. After preincubation, the cofactors (NADPH, G6P, G6PDH, and MgCl2 predissolved in 0.1 M Tris–HCl) were added to the incubation mixture and the incubation was continued at 37 °C for 1 h.
For both phase I and II studies: At each time point (0, 5, 15, 30, and 60 min), 30 μL of the incubation mixture was diluted with 200 μL of cold CH3CN spiked with 200 nM of an appropriate internal standard, followed by centrifugation at 3270g for 15 min. The supernatant was further diluted with H2O (1:1) for analysis. A reference incubation mixture (microsomes without cofactors) was prepared for each test compound and analyzed at t = 0 and 60 min in order to verify the compound’s stability in the matrix. The two time points were diluted as for the time points of the incubation mixture above. The supernatants were analyzed by LC/MS–MS on a Waters ACQUITY UPLC/MS TQD system consisting of a TQD (triple quadrupole detector) mass spectrometer equipped with an electrospray ionization interface and a photodiode array eλ detector. Electrospray ionization was applied in positive mode. Compound-dependent parameters as MRM transitions and collision energy were developed for each compound. The analyses were run on an ACQUITY UPLC BEH C18 (50 × 2.1 mm ID, particle size 1.7 μm) with a VanGuard BEH C18 precolumn (5 × 2.1 mm ID, particle size 1.7 μm) at 40 °C, using H2O + 0.1% HCOOH (A) and CH3CN + 0.1% HCOOH (B) as the mobile phase. The percentage of test compound remaining at each time point relative to t = 0 was calculated by the response factor on the basis of the internal standard peak area. The percentage of test compound versus time was plotted and fitted by GraphPad Prism (GraphPad Software, Version 5 for Windows, CA, USA, www.graphpad.com) to estimate the compound’s half-life (t1/2), which was reported as mean value along with the standard deviation (n = 3).

F508del-CFTR = F508del-CFTR (Homo sapiens, UniProt P13569, DEL508-508); assay: HS-YFP-based assay for CFTR activity on F508del-CFTR FRT cells rescued at 32 °C for 24 h; type: cell-based; design: expressed in transfected cells; key to Emax: fold increase in F508del-CFTR rescue relative to hit 3 (normalized); conditions: for EC50: F508del-CFTR FRT cells rescued at 32 °C for 24 h, plus forskolin; for Emax: supplementary csv, same data as Tables 1–3
Chain of F508del-CFTR (P13569 with tags, fused parts or gaps DEL508-508): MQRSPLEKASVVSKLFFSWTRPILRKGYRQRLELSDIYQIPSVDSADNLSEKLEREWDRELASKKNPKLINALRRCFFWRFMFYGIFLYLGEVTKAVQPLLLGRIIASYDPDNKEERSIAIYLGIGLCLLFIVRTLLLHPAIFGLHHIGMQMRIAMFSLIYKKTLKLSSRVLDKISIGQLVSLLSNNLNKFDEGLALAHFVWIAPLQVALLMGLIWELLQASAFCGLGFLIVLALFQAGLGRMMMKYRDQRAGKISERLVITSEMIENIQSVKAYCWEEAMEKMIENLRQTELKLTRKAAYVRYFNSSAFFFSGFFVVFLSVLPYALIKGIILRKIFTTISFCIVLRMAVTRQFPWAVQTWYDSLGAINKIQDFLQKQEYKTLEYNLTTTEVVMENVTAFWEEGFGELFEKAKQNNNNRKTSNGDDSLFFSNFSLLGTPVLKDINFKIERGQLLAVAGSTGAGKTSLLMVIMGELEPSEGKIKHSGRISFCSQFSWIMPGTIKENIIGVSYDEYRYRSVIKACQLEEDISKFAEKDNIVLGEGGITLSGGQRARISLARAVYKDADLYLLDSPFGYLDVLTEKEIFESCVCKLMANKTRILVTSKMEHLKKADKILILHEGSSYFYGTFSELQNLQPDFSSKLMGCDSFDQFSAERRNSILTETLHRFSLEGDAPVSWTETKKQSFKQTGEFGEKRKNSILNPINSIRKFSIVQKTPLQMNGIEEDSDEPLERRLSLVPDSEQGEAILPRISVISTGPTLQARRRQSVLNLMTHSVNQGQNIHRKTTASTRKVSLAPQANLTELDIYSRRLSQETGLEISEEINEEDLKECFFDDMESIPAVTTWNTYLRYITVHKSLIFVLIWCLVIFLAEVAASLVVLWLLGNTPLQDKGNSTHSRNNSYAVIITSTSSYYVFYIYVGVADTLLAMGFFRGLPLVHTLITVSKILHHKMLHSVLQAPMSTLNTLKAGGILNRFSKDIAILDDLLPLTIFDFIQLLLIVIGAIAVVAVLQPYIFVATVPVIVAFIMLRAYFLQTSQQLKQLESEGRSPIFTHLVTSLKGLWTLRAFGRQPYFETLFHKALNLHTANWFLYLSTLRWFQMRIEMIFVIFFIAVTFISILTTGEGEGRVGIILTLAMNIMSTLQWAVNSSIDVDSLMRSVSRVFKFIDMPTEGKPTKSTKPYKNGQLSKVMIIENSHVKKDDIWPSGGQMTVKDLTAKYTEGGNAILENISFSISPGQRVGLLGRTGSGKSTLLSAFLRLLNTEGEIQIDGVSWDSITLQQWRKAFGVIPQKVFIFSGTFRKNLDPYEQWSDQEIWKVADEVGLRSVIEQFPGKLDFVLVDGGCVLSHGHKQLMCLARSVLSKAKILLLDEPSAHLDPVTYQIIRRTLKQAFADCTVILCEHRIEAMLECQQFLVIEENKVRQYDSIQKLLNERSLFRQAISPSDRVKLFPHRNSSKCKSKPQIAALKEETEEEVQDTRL
Outline: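 FRT cells co-expressing F508del-CFTR and HS-YFP (H148Q/I152L) were rescued 24 h at 32 °C, then exposed to compound plus forskolin (10 or 20 μM) for about 25 min in PBS. Iodide injection (100 mM final) quenched YFP (ex 500/em 535 nm). The initial dF/dt gave activity, fitted for EC50 and for Emax relative to a reference hit.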

[2] = mean ± SD (n = 3–6), n.a.: not active (up to 20 μM)

## COc1ccc2[nH]c3c(c2c1)CN(C(=O)c1cc(C(F)(F)F)[nH]n1)CC3 [Compound 3, (8-Methoxy-1,3,4,5-tetrahydropyrido[4,3-b]indol-2-yl)-[5-(trifluoromethyl)-1H-pyrazol-3-yl]methanone]
[1]
  half-life at 1 h, 4.6 µM: 30 ± 1 min
F508del-CFTR; [2]
  EC50: 0.35 ± 0.13 µM
F508del-CFTR
  Emax: 1 ± 0.04

## O=C(c1cc(C(F)(F)F)[nH]n1)N1CCc2[nH]c3c(F)cccc3c2C1 [Compound 20, (6-Fluoro-1,3,4,5-tetrahydro-2H-pyrido[4,3-b]indol-2-yl)-(5-(trifluoromethyl)-1H-pyrazol-3-yl)methanone]
[1]
  rat LM_NADPH parent compound remaining at the last time point (in parentheses): 64%
  half-life at 4.6 μM: > 60 min
F508del-CFTR; [2]
  EC50: 0.096 ± 0.021 µM
F508del-CFTR; normalized for the activity of analogue 3, mean ± SD (n = 3–6), n.a.: not active (up to 20 μM)
  Emax (FRT F508del-CFTR): 0.96 ± 0.06
F508del-CFTR
  Emax: 0.96 ± 0.06

## COc1cc(F)c2[nH]c3c(c2c1)CN(C(=O)c1cc(C(F)(F)F)[nH]n1)CC3 [Compound 25, (6-Fluoro-8-methoxy-1,3,4,5-tetrahydro-2H-pyrido[4,3-b]indol-2-yl)-(5-(trifluoromethyl)-1H-pyrazol-3-yl)methanone]
[1]
  half-life at 1 h, 4.6 µM: 20 ± 1 min
F508del-CFTR; [2]
  EC50: 0.13 ± 0.06 µM
F508del-CFTR
  Emax: 1.15 ± 0.13

## O=C(c1cc(C(F)(F)F)[nH]n1)N1CCc2[nH]c3c(F)ccc(F)c3c2C1 [Compound 29, (6,9-Difluoro-1,3,4,5-tetrahydro-2H-pyrido[4,3-b]indol-2-yl)-(5-(trifluoromethyl)-1H-pyrazol-3-yl)methanone]
[1]
  half-life at 1 h, 4.6 µM: 50 ± 9 min
F508del-CFTR; [2]
  EC50: 0.15 ± 0.08 µM
F508del-CFTR
  Emax: 1.19 ± 0.15

## Cc1ccc(F)c2[nH]c3c(c12)CN(C(=O)c1cc(C(F)(F)F)[nH]n1)CC3 [Compound 30, (6-Fluoro-9-methyl-1,3,4,5-tetrahydro-2H-pyrido[4,3-b]indol-2-yl)-(5-(trifluoromethyl)-1H-pyrazol-3-yl)methanone]
[1]
  half-life at 1 h, 4.6 µM: 32 ± 1 min
F508del-CFTR; EC50, F508del-CFTR FRT cells
  fold increase in potency compared to hit 3: more than 6 fold
F508del-CFTR; [2]
  EC50: 0.06 ± 0.03 µM
F508del-CFTR
  Emax: 1.00 ± 0.09

## Cc1ccc(F)c2[nH]c3c(c12)CN(C(=O)c1cc(C(F)(F)F)[nH]n1)[C@H](C)C3 [Compound 39, (R)-(6-Fluoro-3,9-dimethyl-1,3,4,5-tetrahydro-2H-pyrido[4,3-b]indol-2-yl)-(5-(trifluoromethyl)-1H-pyrazol-3-yl)methanone]
[1]
  rat LM_NADPH parent compound remaining at the last time point (in parentheses): 70%
  half-life at 4.6 μM: > 60 min
F508del-CFTR
  activity on F508del-CFTR FRT cells (in words): the most potent analogue
  Emax: 1.30 ± 0.12
F508del-CFTR; [2]
  EC50: 0.017 ± 0.007 µM
F508del-CFTR; tested at 10 and 1 nM, Figure 6A
  activity compared to VX-770: slightly lower activity than VX-770
